Experimental data: article PMC5325082 (Molecular Pharmacology, 2017)

What was measured:
[1] = biological target: T1, rat W55T double-mutant α9α10 receptors (Rattus norvegicus, UniProt P43144+Q9JLB5, W81T/W82T); test: ACh-evoked currents, two-electrode voltage clamp in Xenopus laevis oocytes; assay type: cell-based; conditions: 1 or 30 mM ACh, n = 15
T1 construct: expressed in transfected cells; host or cells: Xenopus laevis oocytes (cRNA injection)
Source text: (§1) cDNAs encoding Gallus gallus (chick) or Rattus norvegicus (rat) α9 and α10 nAChR subunits were subcloned into a modified pGEMHE vector for expression studies in Xenopus laevis oocytes. Capped cRNAs were in vitro transcribed from linearized plasmid DNA templates using RiboMAX Large Scale RNA Production System (Promega, Madison, WI). Mutant subunits were produced using Quick Change XL II kit (Stratagene, La Jolla, CA). Amino acid sequences of rat and chicken α9, α10, and Torpedo α1 subunits were aligned using ClustalW (EMBL-EBI, Wellcome Genome Campus, Hinxton, Cambridgeshire). Residues were numbered according to the corresponding Torpedo α1 subunit mature protein ([Karlin, 2002]).
(§2) The maintenance of Xenopus laevis and the preparation and cRNA injection of stage V and VI oocytes have been described in detail elsewhere ([Verbitsky et al., 2000]). Typically, oocytes were injected with 50 nl of RNase-free water containing 0.01–1.0 ng of cRNA (at a 1:1 molar ratio when pairwise combined) and maintained in Barth’s solution at 18°C. Electrophysiological recordings were performed 2–6 days after cRNA injection under two-electrode voltage clamp with an Oocyte Clamp OC-725B or C amplifier (Warner Instruments Corp., Hamden, CT). Recordings were filtered at a corner frequency of 10 Hz using a 900BT Tunable Active Filter (Frequency Devices Inc., Ottawa, IL). Data acquisition was performed using a Patch Panel PP-50 LAB/1 interface (Warner Instruments Corp.) at a rate of 10 points per second. Both voltage and current electrodes were filled with 3 M KCl and had resistances of ∼1 MΩ. Data were analyzed using Clampfit from the pClamp 6.1 software (Molecular Devices, Sunnyvale, CA). During electrophysiological recordings, oocytes were continuously superfused (∼15 ml/min) with normal frog saline composed of: 115 mM NaCl, 2.5 mM KCl, 1.8 mM CaCl2, and 10 mM HEPES buffer, pH 7.2. ACh was added to the perfusion solution for application. Unless otherwise indicated, the membrane potential was clamped to −70 mV. To minimize activation of the endogenous Ca^2+ sensitive chloride current ([Elgoyhen et al., 2001]), all experiments were performed in oocytes incubated with the Ca^2+ chelator 1,2-bis(2-aminophenoxy)ethane-N,N,N′,N′-tetraacetic acid (acetoxymethyl ester) (100 µM) for 3 hours before electrophysiological recordings.
(§3) Concentration-response curves were normalized to the maximal agonist response in each oocyte. The mean and S.E.M. values of the responses are represented. Agonist concentration-response curves were iteratively fitted, using Prism 5 software (GraphPad Software Inc., La Jolla, CA), with the equation: I/Imax = A^nH/(A^nH + EC50^nH), where I is the peak inward current evoked by the agonist at concentration A; Imax is the current evoked by the concentration of the agonist eliciting a maximal response; EC50 is the concentration of the agonist inducing a half-maximal current response; and nH is the Hill coefficient. Data were analyzed using Clampfit from the pClamp 6.1 software.

[2] = biological target: T2, chicken W55T double-mutant α9α10 receptors (Gallus gallus, UniProt Q9I8C7+Q9PTS8, W83T/W84T); test: as above; assay type: cell-based; conditions: 1 or 30 mM ACh, n = 10
T2 construct: expressed in transfected cells; host or cells: Xenopus laevis oocytes (cRNA injection)
Source text: as §1, §2, §3

[3] = biological target: T3, rat double-mutant α9Y190Tα10Y190T receptors (Rattus norvegicus, UniProt P43144+Q9JLB5, Y216T/Y217T); test: as above; assay type: cell-based; conditions: 1 or 30 mM ACh, n = 8
T3 construct: expressed in transfected cells; host or cells: Xenopus laevis oocytes (cRNA injection)
Source text: as §1, §2, §3

[4] = biological target: chicken α9α10W55T receptor (Gallus gallus, UniProt Q9I8C7+Q9PTS8, W83T); test: as above; assay type: cell-based
Source text: as §1, §2, §3

[5] = biological target: chicken α9W55Tα10 receptor (Gallus gallus, UniProt Q9I8C7+Q9PTS8, W84T); test: as above; assay type: cell-based
Source text: as §1, §2, §3

[6] = tested on: Aplysia californica AChBP, CC mutant; conditions: does not abolish ACh binding; ref Hansen and Taylor, 2007; cited from earlier work

## CC(=O)OCC[N+](C)(C)C [ACh, acetylcholine]
[1]
  Currents evoked by ACh: failed to evoke currents
[2]
  Currents evoked by ACh: failed to evoke currents
[3]
  Response to ACh: failed to respond
[4]
  EC50: 334 ± 13 µM
  Imax (maximal evoked current): 159 ± 32 nA
[5]
  EC50: 357 ± 75 µM
  Imax (maximal evoked current): 59 ± 8 nA
[6]
  Decrease in affinity on mutation of the CC: 10 fold
